Read-outs that look alike come from different tables or passages of the source.
How the values were obtained:
[1] = tested on: Lymphocyte Leukemia P-388; experiment: Survival time of mice inoculated i.p. with Lymphocyte Leukemia P-388, treated days 5, 9 and 13 (Table A); type: in vivo, mouse; conditions: for Survival Time, % T/C: P-388 in mice, q4d 5,9,13, at optimum dose
[2] = tested on: RNA synthesis in L 1210 Cells; experiment: Inhibition of RNA synthesis in L 1210 Cells; type: cell-based, mouse; conditions: for IC50: read-out: Leukemia L-1210 Cells Inhibition of Synthesis ED50, RNA
[3] = tested on: DNA synthesis in L 1210 Cells; experiment: Inhibition of DNA synthesis in L 1210 Cells; type: cell-based, mouse
[4] = prior art; cited from earlier work
DNA = conditions: cited from earlier work
mouse leukemia P388 = conditions: cited from earlier work; for activity in mouse leukemia P388 screen / dose requirement in P388 screen: 3-dose schedule q4d 5,9,13
B-16 Melanoma = experiment: Mouse antitumor efficacy vs B-16 Melanoma (Table B); conditions: section "ip B16"; d 1, ip
P-388 leukemia = experiment: Mouse antitumor efficacy vs P-388 leukemia (Table B); conditions: ip P388
[5] = Mus musculus, L1210, L-1210 cells, RNA synthesis
[6] = Mus musculus, L1210, L-1210 cells, DNA synthesis, read-out: Leukemia L-1210 Cells Inhibition of Synthesis ED50, DNA

COc1cccc2c1C(=O)c1c(O)c3c(c(O)c1C2=O)C[C@@](O)(C(C)=O)C[C@@H]3O[C@H]1C[C@H](N2CCSCC2)[C@H](O)[C@H](C)O1
T/C vs mouse leukemia P388 ([1]; at 50 mg/kg (thiomorpholino) or 8 mg/kg (doxorubicin)): 169% | dose required vs mouse leukemia P388 ([1]; dose for the T/C quoted): 50 mg/kg

COc1cccc2c1C(=O)c1c(O)c3c(c(O)c1C2=O)C[C@@](O)(C(=O)CO)C[C@@H]3O[C@H]1C[C@H](N2C(=O)COCC2C#N)[C@H](O)[C@H](C)O1 (stereo partly shown) [3'-deamino-3'-(3"-cyano-5"-oxo-4"-morpholinyl)-doxorubicin]
IC50 ([2]; l1210 cells): 30 nM | IC50 ([3]; l1210 cells, read-out: Leukemia L-1210 Cells Inhibition of Synthesis ED50, DNA): 50 nM

COc1cccc2c1C(=N)c1c(O)c3c(c(O)c1C2=O)C[C@@](O)(C(C)=O)C[C@@H]3O[C@H]1C[C@H](N)[C@H](O)[C@H](C)O1 [5-Iminodaunorubicin]
antitumor activity, side effects and dosage [4]: retained activity with reduced side effects

COc1cccc2c1C(=N)c1c(O)c3c(c(O)c1C2=O)C[C@@](O)(C(=O)CO)C[C@@H]3O[C@H]1C[C@H](N)[C@H](O)[C@H](C)O1 [5-iminodoxorubicin]
antitumor activity, side effects and dosage [4]: showed enhanced activity but required higher dosages

CCCCC(=O)OCC(=O)[C@]1(O)Cc2c(O)c3c(c(O)c2[C@@H](O[C@H]2C[C@H](NC(=O)C(F)(F)F)[C@H](O)[C@H](C)O2)C1)C(=O)c1c(OC)cccc1C3=O [AD32]
interaction with DNA in vitro (DNA): fail to interact with DNA in vitro | activity in mouse leukemia P388 screen (mouse leukemia P388): most active new analogues so far | dose requirement in P388 screen (mouse leukemia P388): required significantly higher doses

COc1cccc2c1C(=O)c1c(O)c3c(c(O)c1C2=O)C[C@@](O)(C(C)=O)C[C@@H]3O[C@H]1C[C@H](N(Cc2ccccc2)Cc2ccccc2)[C@H](O)[C@H](C)O1 [N,N-dibenzyldaunorubicin]
interaction with DNA in vitro (DNA): fail to interact with DNA in vitro | activity in mouse leukemia P388 screen (mouse leukemia P388): most active new analogues so far | dose requirement in P388 screen (mouse leukemia P388): required significantly higher doses

COc1cccc2c1C(=O)c1c(O)c3c(c(O)c1C2=O)C[C@@](O)(C(C)O)C[C@@H]3O[C@H]1C[C@H](N2CCOCC2)[C@H](O)[C@H](C)O1 (stereo partly shown) [NSC 327450, 3'-deamino-3'-(4"-morpholinyl)-13-dihydrodaunorubicin]
IC50 [2, 5]: 670 nM | IC50 [3, 6]: 2200 nM | Mouse Antitumor Efficacy at Optimum Dose, % T/C (B-16 Melanoma): 121% | Survival Time, % T/C [1]: 132%

COc1cccc2c1C(=O)c1c(O)c3c(c(O)c1C2=O)C[C@@](O)(C(C)=O)C[C@@H]3O[C@H]1C[C@H](N2CCOCC2)[C@H](O)[C@H](C)O1 [NSC 327451, 3'-deamino-3'-(4"-morpholinyl)daunorubicin]
IC50 [2, 5]: 100 nM | IC50 [3, 6]: 760 nM | Mouse Antitumor Efficacy at Optimum Dose, % T/C (B-16 Melanoma): 135% | active dose relative to the dose of doxorubicin (mouse leukemia P388; prior art, P388): one-fortieth the dose of doxorubicin | T/C value against P388 (mouse leukemia P388; prior art, U.S. Pat. No. 4,301,277): 166% | Survival Time, % T/C [1]: 166% | Mouse Antitumor Efficacy at Optimum Dose, % T/C (P-388 leukemia; d 1, ip): 155% | Optimum Dose (P-388 leukemia; d 1, ip): 0.25 mg/kg | Mouse Antitumor Efficacy at Optimum Dose, % T/C (P-388 leukemia; d 1, iv): 152% | Optimum Dose (P-388 leukemia; d 1, iv): 0.5 mg/kg

COc1cccc2c1C(=O)c1c(O)c3c(c(O)c1C2=O)C[C@@](O)(C(C)=O)C[C@@H]3O[C@H]1C[C@H](N2CCOCC2C#N)[C@H](O)[C@H](C)O1 (stereo partly shown) [NSC 332304, 3'-deamino-3'-(3"-cyano-4"-morpholinyl)daunorubicin]
inhibition of RNA vs DNA synthesis [2]: much more inhibitory toward RNA synthesis than toward DNA synthesis | IC50 ([3]; Mus musculus, L1210, read-out: Leukemia L-1210 Cells Inhibition of Synthesis ED50, DNA): 12 nM | Mouse Antitumor Efficacy at Optimum Dose, % T/C (B-16 Melanoma): 138% | Survival Time, % T/C [1]: 197% | Mouse Antitumor Efficacy at Optimum Dose, % T/C (P-388 leukemia; d 1, ip): 175% | Optimum Dose (P-388 leukemia; d 1, ip): 0.25 mg/kg | Mouse Antitumor Efficacy at Optimum Dose, % T/C (P-388 leukemia; d 1, iv): 157% | Optimum Dose (P-388 leukemia; d 1, iv): 0.5 mg/kg
